In article PMC8206213, “An L-2-hydroxyglutarate biosensor based on specific transcriptional regulator LhgR” (Nature Communications, 2021):
Several values for one entry are separate records, joined by “and”; a condition that tells them apart may be missing. Equal values may be shown once.

Experiments:
[1] = Dose-response of purified LHGFR for D-2-HG in buffer; type: binding
Protocol: Purified L-2-HG biosensors and different compounds were diluted by 50 mM Tris-HCl buffer (pH 7.4), mixed together in a black 96-well plate at a volume ratio of 3:1, and the fluorescence intensities were measured using an EnSight microplate reader (PerkinElmer, USA) with excitation at 430 nm, emission at 485 nm (mTFP) and 528 nm (Venus). The dose-response curves were fitted by OriginPro 2016 software (OriginLab) according to the following formula:1 R=Rmax+Rmin−Rmax/1+([L-2-HG]/Kd)^p where R, Rmin, and Rmax refer to the emission ratio of Venus to mTFP, ratio in the absence of L-2-HG, and ratio at saturation with L-2-HG, respectively. The [L-2-HG], Kd, and p refer to the L-2-HG concentration, apparent dissociation constant, and Hill slope, respectively. Emission spectra were recorded at 430 nm excitation, in steps of 2 nm. Excitation spectra were recorded using emission at 550 nm, excitation from 380 to 535 nm in steps of 2 nm.

[2] = system: LHGFR0N7C expressed in HEK293FT cells; assay: Specificity of LHGFR0N7C expressed in permeabilized HEK293FT cells, 1 mM compounds; type: cell-based, human (HEK293FT cells); conditions: Supplementary Fig. 17d; Control about 1
Protocol: (§1) To characterize the sensitivity and specificity of LHGFR expressed in HEK293FT cells, cells were trypsinized 48 h following transfection and suspended in 1× Hank’s balanced salt solution supplemented with 20 mM HEPES. […] Digitonin at a concentration of 10 μM was used to induce cell permeabilization and deplete intracellular L-2-HG for in vivo response curves construction. Then, the fluorescence intensities were determined by a SpectraMax i3 fluorescence plate reader (Molecular Devices, USA) with excitation at 430 nm and emission at 485 nm (mTFP) and 528 nm (Venus). Basal L-2-HG concentration in HEK293FT cells under physiological conditions was determined by substituting the emission ratios of non-permeabilized HEK293FT cells into the calibrated in vivo response curves.

[3] = system: LHGFR0N3C expressed in HEK293FT cells; assay: Specificity of LHGFR0N3C expressed in permeabilized HEK293FT cells, 1 mM compounds; type: cell-based, human (HEK293FT cells); conditions: 1 mM compound, cells permeabilized with 10 μM digitonin, normalized to control
Protocol: as §1

[4] = system: LHGFR3N7C expressed in E. coli BL21(DE3); assay: Control biosensor LHGFR3N7C expressed in E. coli, response to added compounds; type: cell-based; conditions: Supplementary Fig. 14a
Protocol: To characterize the sensitivity and specificity of LHGFR expressed in E. coli BL21(DE3), 90 μL cell suspensions following 8 h carbon starvation were mixed with 10 μL increasing concentrations of L-2-HG or other compounds, and then added into a black 96-well plate (total 100 μL/per well), the fluorescence intensities were determined using an EnSight microplate reader (PerkinElmer, USA) and the following instrument settings: excitation at 430 nm, emission at 485 nm (mTFP) and 528 nm (Venus), time intervals of 5 min, the temperature at 37 °C, and shake at 180 rpm.

O=C(O)CC[C@@H](O)C(=O)O [D-2-HG]
Emission ratio of 528/485 ([1]; 2-HG concentration 0.01, Suppl. Fig. 9c): 1.387 and 1.378 and 1.399 | Emission ratio of 528/485 ([1]; 2-HG concentration 0.01, Suppl. Fig. 9d): 1.657 and 1.673 and 1.678 | Emission ratio of 528/485 ([1]; 2-HG concentration 0.1, Suppl. Fig. 9c): 1.372 and 1.375 and 1.382 | Emission ratio of 528/485 ([1]; 2-HG concentration 0.1, Suppl. Fig. 9d): 1.659 and 1.671 and 1.687 | Emission ratio of 528/485 ([1]; 2-HG concentration 0.2, Suppl. Fig. 9c): 1.374 and 1.387 and 1.391 | Emission ratio of 528/485 ([1]; 2-HG concentration 0.2, Suppl. Fig. 9d): 1.6456 and 1.673 and 1.682 | Emission ratio of 528/485 ([1]; 2-HG concentration 1, Suppl. Fig. 9c): 1.374 and 1.373 and 1.392 | Emission ratio of 528/485 ([1]; 2-HG concentration 1, Suppl. Fig. 9d): 1.662 and 1.681 and 1.683 | Emission ratio of 528/485 ([1]; 2-HG concentration 2, Suppl. Fig. 9c): 1.367 and 1.388 and 1.39 | Emission ratio of 528/485 ([1]; 2-HG concentration 2, Suppl. Fig. 9d): 1.647 and 1.673 and 1.676 | Emission ratio of 528/485 ([1]; 2-HG concentration 10, Suppl. Fig. 9c): 1.374 and 1.398 and 1.395 | Emission ratio of 528/485 ([1]; 2-HG concentration 10, Suppl. Fig. 9d): 1.662 and 1.69 and 1.707 | Emission ratio of 528/485 ([1]; 2-HG concentration 20, Suppl. Fig. 9c): 1.362 and 1.378 and 1.389 | Emission ratio of 528/485 ([1]; 2-HG concentration 20, Suppl. Fig. 9d): 1.665 and 1.705 and 1.723 | Emission ratio of 528/485 ([1]; 2-HG concentration 100, Suppl. Fig. 9c): 1.381 and 1.406 and 1.415 | Emission ratio of 528/485 ([1]; 2-HG concentration 100, Suppl. Fig. 9d): 1.815 and 1.829 and 1.846 | Emission ratio of 528/485 ([1]; 2-HG concentration 200, Suppl. Fig. 9c): 1.404 and 1.432 and 1.433 | Emission ratio of 528/485 ([1]; 2-HG concentration 200, Suppl. Fig. 9d): 1.932 and 1.978 and 1.981 | Emission ratio of 528/485 ([1]; 2-HG concentration 1000, Suppl. Fig. 9c): 1.525 and 1.561 and 1.565 | Emission ratio of 528/485 ([1]; 2-HG concentration 1000, Suppl. Fig. 9d): 2.255 and 2.2953 and 2.327 | Emission ratio of 528/485 ([1]; 2-HG concentration 2000, Suppl. Fig. 9c): 1.698 and 1.693 and 1.687 | Emission ratio of 528/485 ([1]; 2-HG concentration 2000, Suppl. Fig. 9d): 2.559 and 2.546 and 2.55 | Normalized emission ratio [2]: 1.116 and 1.067 and 1.082 | Normalized emission ratio [3]: 1.056 and 1.057 and 1.069 | normalized emission ratio of control biosensor expressed in E. coli ([4]; time 0 min): 1.02 and 1.012 and 1.01 and 1.0239 | normalized emission ratio of control biosensor expressed in E. coli ([4]; time 5 min): 1.007 and 1.013 and 1.012 and 1.022 | normalized emission ratio of control biosensor expressed in E. coli ([4]; time 10 min): 1.011 and 1.012 (2×) and 1.02 | normalized emission ratio of control biosensor expressed in E. coli ([4]; time 15 min): 1.008 and 1.007 and 1.013 and 1.022 | normalized emission ratio of control biosensor expressed in E. coli ([4]; time 20 min): 1.004 and 1.013 and 1.022 and 1.028 | normalized emission ratio of control biosensor expressed in E. coli ([4]; time 25 min): 1.0101 and 1.011 and 1.02 and 1.024 | normalized emission ratio of control biosensor expressed in E. coli ([4]; time 30 min): 1.007 and 1.022 and 1.016 and 1.027 | normalized emission ratio of control biosensor expressed in E. coli ([4]; time 35 min): 1.021 and 1.0176 and 1.025 and 1.027 | normalized emission ratio of control biosensor expressed in E. coli ([4]; time 40 min): 1.019 (2×) and 1.013 and 1.028 | normalized emission ratio of control biosensor expressed in E. coli ([4]; time 45 min): 1.015 and 1.017 and 1.0244 and 1.023 | normalized emission ratio of control biosensor expressed in E. coli ([4]; time 50 min): 1.007 and 1.012 and 1.0275 and 1.019 | normalized emission ratio of control biosensor expressed in E. coli ([4]; time 55 min): 1.011 (2×) and 1.037 and 1.027 | normalized emission ratio of control biosensor expressed in E. coli ([4]; time 60 min): 1.016 and 1.014 and 1.0182 and 1.0226 | normalized emission ratio of control biosensor expressed in E. coli ([4]; time 65 min): 1.014 and 1.022 and 1.029 and 1.023 | normalized emission ratio of control biosensor expressed in E. coli ([4]; time 70 min): 1.021 and 1.015 and 1.038 and 1.03 | normalized emission ratio of control biosensor expressed in E. coli ([4]; time 75 min): 1.0229 and 1.021 and 1.034 and 1.027 | normalized emission ratio of control biosensor expressed in E. coli ([4]; time 80 min): 1.027 and 1.023 and 1.038 (2×) | normalized emission ratio of control biosensor expressed in E. coli ([4]; time 85 min): 1.021 and 1.027 and 1.032 and 1.0274 | normalized emission ratio of control biosensor expressed in E. coli ([4]; time 90 min): 1.0277 and 1.033 and 1.04 and 1.032

O=C(O)CCCC(=O)O [Glutarate, glutarate]
Normalized emission ratio [2]: 0.9993 and 0.9933 and 0.9442 | Normalized emission ratio [3]: 0.9633 and 1.016 and 1.046 | normalized emission ratio of control biosensor expressed in E. coli ([4]; time 0 min): 1.008 and 0.9954 and 0.9826 and 0.9922 | normalized emission ratio of control biosensor expressed in E. coli ([4]; time 5 min): 1.009 and 0.9959 and 0.9842 and 0.997 | normalized emission ratio of control biosensor expressed in E. coli ([4]; time 10 min): 1.009 and 0.9912 and 0.9859 and 0.9988 | normalized emission ratio of control biosensor expressed in E. coli ([4]; time 15 min): 1.011 and 0.9845 and 0.9854 and 0.993 | normalized emission ratio of control biosensor expressed in E. coli ([4]; time 20 min): 1.001 (2×) and 0.9957 and 0.9921 | normalized emission ratio of control biosensor expressed in E. coli ([4]; time 25 min): 1.004 and 0.9829 and 0.99 and 1.01 | normalized emission ratio of control biosensor expressed in E. coli ([4]; time 30 min): 1.003 and 0.9825 and 0.992 and 1.008 | normalized emission ratio of control biosensor expressed in E. coli ([4]; time 35 min): 1.004 (2×) and 0.9933 and 1.0123 | normalized emission ratio of control biosensor expressed in E. coli ([4]; time 40 min): 1.001 and 1.002 and 0.9991 and 1.015 | normalized emission ratio of control biosensor expressed in E. coli ([4]; time 45 min): 1.004 and 1.003 and 1.002 and 1.015 | normalized emission ratio of control biosensor expressed in E. coli ([4]; time 50 min): 1.007 and 1.003 and 0.9994 and 1.015 | normalized emission ratio of control biosensor expressed in E. coli ([4]; time 55 min): 1.005 and 0.994 and 1.003 and 1.016 | normalized emission ratio of control biosensor expressed in E. coli ([4]; time 60 min): 1.022 and 0.993 and 1.012 and 1.027 | normalized emission ratio of control biosensor expressed in E. coli ([4]; time 65 min): 1.018 and 1.003 and 1.0048 and 1.024 | normalized emission ratio of control biosensor expressed in E. coli ([4]; time 70 min): 1.018 (2×) and 1.011 and 1.029 | normalized emission ratio of control biosensor expressed in E. coli ([4]; time 75 min): 1.029 and 0.9995 and 1.018 and 1.031 | normalized emission ratio of control biosensor expressed in E. coli ([4]; time 80 min): 1.036 and 1.008 and 1.027 and 1.028 | normalized emission ratio of control biosensor expressed in E. coli ([4]; time 85 min): 1.027 and 1.007 and 1.024 and 1.023 | normalized emission ratio of control biosensor expressed in E. coli ([4]; time 90 min): 1.042 and 1.01 and 1.0199 and 1.034
